The numbers were not newly measured in patent publication US6770729B2, “Polymer compositions containing bioactive agents and methods for their use” (priority 2002, dated 2004), which cites them from elsewhere.

Structures are written as SMILES.

This data set concerns the target avidin (Gallus gallus, UniProt P02701).

Sequence of avidin (P02701 25-152): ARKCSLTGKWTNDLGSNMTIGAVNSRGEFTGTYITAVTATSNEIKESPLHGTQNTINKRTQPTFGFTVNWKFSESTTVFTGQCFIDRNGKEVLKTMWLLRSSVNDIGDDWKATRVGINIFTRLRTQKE

As for `O=C(O)CCCC[C@@H]1SC[C@@H]2NC(=O)N[C@@H]21` [biotin], where the note is “avidin tetramer binds 4 biotin molecules in solution, noncovalent interaction”, the binding constant entry is given as “about 10^15 M^−1”. In addition, the half-life in vivo result (avidin-biotin interaction, dissociation of the complex) is on record as “about 89 days”.
